Laboratory results published in patent publication US20260130951A1, “GLYCYRRHIZIN-GLYCOL CHITOSAN CONJUGATE-COATED IRON OXIDE NANOPARTICLES AND USE THEREOF” (Industry-University Cooperation Foundation Hanyang …, priority 2018, published 2026).

Tests used:
[1] = about 5 mg/kg intravenously injected; cited from earlier work
[2] = Liver lobe distribution after hepatic portal vein injection of methylene blue solution; format: in vivo, balb/c mice; settings: about 24 hours
Protocol: After zoletil and rumpun were injected into the abdominal cavity of balb/c mice at a ratio of 9:1 to anesthetize them, a methylene blue solution was injected by hepatic portal vein […]. After waiting for about 24 hours for tissue fixation of the methylene blue solution, all liver lobes were isolated by sacrificing the mice. The isolated liver lobes were fixed with a 10% formalin solution, made into a paraffin block, and cut into a thickness of 5 μm to prepare a tissue section slide. Thereafter, paraffin was removed from the tissue section slide, the slide was rehydrated, and then the tissue section was stained with a Harris hematoxylin solution and an eosin solution, and observed under an optical microscope.

Row | Structure (SMILES) | time glycyrrhizin remains in the body [1] [min] | distribution of methylene blue solution among liver lobes (image J) [2]
1 | CC1(C)[C@@H](O[C@H]2O[C@H](C(=O)O)[C@@H](O)[C@H](O)[C@H]2O[C@@H]2O[C@H](C(=O)O)[C@@H](O)[C@H](O)[C@H]2O)CC[C@]2(C)[C@H]3C(=O)C=C4[C@@H]5C[C@@](C)(C(=O)O)CC[C@]5(C)CC[C@@]4(C)[C@]3(C)CC[C@@H]12 [glycyrrhizin] | ≤ 15 | 
2 | CN(C)c1ccc2nc3ccc(=[N+](C)C)cc-3sc2c1 [methylene blue solution, methylene blue] |  | present in the largest amount in Mediate 1
